Laboratory results from PubChem BioAssay AID1919001 (Molecular Pharmacology Branch, DTP, NCI, 2023).

Test system: 699152-130-R-J1-PDC complex spheroid growth
Assay: Anticancer human tumor 699152-130-R-J1-PDC patient-derived pancreatic carcinoma cell line growth inhibition [AhR]
Settings: for IC50: curve of first compound; for viability, T/C: stronger effect = lower value
Outline: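 Complex tumor spheroids co-cultured with HUVEC and human MSC stroma; AhR antagonists tested in combination with standard-of-care and investigational agents. Top concentration at or near clinical Cmax (else 10 microM), half-log dilutions; growth expressed as percent test/control.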

[1] = second compound 0.1 µM, first compound 0.000949 µM
[2] = second compound 0.1 µM, first compound 0.003 µM
[3] = second compound 0.1 µM, first compound 0.00949 µM
[4] = second compound 0.1 µM, first compound 0.03 µM
[5] = second compound 0.1 µM, first compound 0.0949 µM
[6] = second compound 0.1 µM, first compound 0.3 µM
[7] = second compound 0.316 µM, first compound 0.000949 µM
[8] = second compound 0.316 µM, first compound 0.003 µM
[9] = second compound 0.316 µM, first compound 0.00949 µM
[10] = second compound 0.316 µM, first compound 0.03 µM
[11] = second compound 0.316 µM, first compound 0.0949 µM
[12] = second compound 0.316 µM, first compound 0.3 µM
[13] = second compound 1 µM, first compound 0.000949 µM
[14] = second compound 1 µM, first compound 0.003 µM
[15] = second compound 1 µM, first compound 0.00949 µM
[16] = second compound 1 µM, first compound 0.03 µM
[17] = second compound 1 µM, first compound 0.0949 µM
[18] = second compound 1 µM, first compound 0.3 µM
[19] = second compound 3.16 µM, first compound 0.000949 µM
[20] = second compound 3.16 µM, first compound 0.003 µM
[21] = second compound 3.16 µM, first compound 0.00949 µM
[22] = second compound 3.16 µM, first compound 0.03 µM
[23] = second compound 3.16 µM, first compound 0.0949 µM
[24] = second compound 3.16 µM, first compound 0.3 µM
[25] = second compound 10 µM, first compound 0.000949 µM
[26] = second compound 10 µM, first compound 0.003 µM
[27] = second compound 10 µM, first compound 0.00949 µM
[28] = second compound 10 µM, first compound 0.03 µM
[29] = second compound 10 µM, first compound 0.0949 µM
[30] = second compound 10 µM, first compound 0.3 µM
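Further: compound exposure lasted 7 days after spheroids had grown for 3 days.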

Q: What does the source list for `Nc1ncn(C2CC(O)C(CO)S2)c(=O)n1` (stereo not given) + Cc1cncc(-c2nc(NCCc3c[nH]c4ccccc34)c3ncn(C(C)C)c3n2)c1?
A: IC50 (second compound 0.1 µM): > 300 nM; IC50 (second compound 0.316 µM): > 300 nM; IC50 (second compound 1 µM): > 300 nM; IC50 (second compound 3.16 µM): > 300 nM; IC50 (second compound 10 µM): < 0.949 nM; viability, T/C [1]: 105%; viability, T/C [2]: 93.8%; viability, T/C [3]: 99.9%; viability, T/C [4]: 99.5%; viability, T/C [5]: 90.8%; viability, T/C [6]: 91.4%; viability, T/C [7]: 112%; viability, T/C [8]: 95.9%; viability, T/C [9]: 97%; viability, T/C [10]: 103%; viability, T/C [11]: 101%; viability, T/C [12]: 107%; viability, T/C [13]: 126%; viability, T/C [14]: 110%; viability, T/C [15]: 106%; viability, T/C [16]: 110%; viability, T/C [17]: 113%; viability, T/C [18]: 111%; viability, T/C [19]: 91.6%; viability, T/C [20]: 88.8%; viability, T/C [21]: 95.1%; viability, T/C [22]: 94.6%; viability, T/C [23]: 107%; viability, T/C [24]: 104%; viability, T/C [25]: 23.9%; viability, T/C [26]: 21%; viability, T/C [27]: 22.8%; viability, T/C [28]: 22.5%; viability, T/C [29]: 19.6%; viability, T/C [30]: 20.4%

Q: How did the IC50 (second compound 0.1 µM) turn out when `COc1cc(Nc2ncc3c(n2)-c2ccc(Cl)cc2C(c2c(F)cccc2OC)=NC3)ccc1C(=O)O` + Cc1cncc(-c2nc(NCCc3c[nH]c4ccccc34)c3ncn(C(C)C)c3n2)c1 was run?
A: > 10000 nM

Q: What about the IC50 (second compound 0.316 µM) of the same compound?
A: > 10000 nM

Q: What about the IC50 (second compound 1 µM) of the same compound?
A: > 10000 nM

Q: What about the IC50 (second compound 3.16 µM) of the same compound?
A: > 10000 nM

Q: And the IC50 (second compound 10 µM)?
A: < 31.6 nM

Q: And the viability, T/C (second compound 0.1 µM, first compound 0.0316 µM)?
A: 80.3%

Q: And the viability, T/C (second compound 0.1 µM, first compound 0.1 µM)?
A: 77.1%

Q: And the viability, T/C (second compound 0.1 µM, first compound 0.316 µM)?
A: 73.4%

Q: And the viability, T/C (second compound 0.1 µM, first compound 1 µM)?
A: 56.5%

Q: What about the viability, T/C (second compound 0.1 µM, first compound 3.16 µM) of the same compound?
A: 56.1%

Q: And the viability, T/C (second compound 0.1 µM, first compound 10 µM)?
A: 57.1%

Q: And the viability, T/C (second compound 0.316 µM, first compound 0.0316 µM)?
A: 76.2%

Q: And the viability, T/C (second compound 0.316 µM, first compound 0.1 µM)?
A: 81%

Q: And the viability, T/C (second compound 0.316 µM, first compound 0.316 µM)?
A: 72.4%

Q: And the viability, T/C (second compound 0.316 µM, first compound 1 µM)?
A: 59.8%

Q: And the viability, T/C (second compound 0.316 µM, first compound 3.16 µM)?
A: 55.9%

Q: What about the viability, T/C (second compound 0.316 µM, first compound 10 µM) of the same compound?
A: 54.8%

Q: What about the viability, T/C (second compound 1 µM, first compound 0.0316 µM) of the same compound?
A: 95.5%

Q: What about the viability, T/C (second compound 1 µM, first compound 0.1 µM) of the same compound?
A: 85.3%

Q: And the viability, T/C (second compound 1 µM, first compound 0.316 µM)?
A: 79.5%

Q: What about the viability, T/C (second compound 1 µM, first compound 1 µM) of the same compound?
A: 69%

Q: What about the viability, T/C (second compound 1 µM, first compound 3.16 µM) of the same compound?
A: 59.7%

Q: What about the viability, T/C (second compound 1 µM, first compound 10 µM) of the same compound?
A: 55.5%

Q: What about the viability, T/C (second compound 3.16 µM, first compound 0.0316 µM) of the same compound?
A: 92.5%

Q: What about the viability, T/C (second compound 3.16 µM, first compound 0.1 µM) of the same compound?
A: 80.9%

Q: And the viability, T/C (second compound 3.16 µM, first compound 0.316 µM)?
A: 84.8%

Q: And the viability, T/C (second compound 3.16 µM, first compound 1 µM)?
A: 64.6%

Q: And the viability, T/C (second compound 3.16 µM, first compound 3.16 µM)?
A: 64.2%

Q: What about the viability, T/C (second compound 3.16 µM, first compound 10 µM) of the same compound?
A: 57.9%

Q: And the viability, T/C (second compound 10 µM, first compound 0.0316 µM)?
A: 23.8%

Q: What about the viability, T/C (second compound 10 µM, first compound 0.1 µM) of the same compound?
A: 21.3%

Q: What about the viability, T/C (second compound 10 µM, first compound 0.316 µM) of the same compound?
A: 21.3%

Q: And the viability, T/C (second compound 10 µM, first compound 1 µM)?
A: 16.9%

Q: And the viability, T/C (second compound 10 µM, first compound 3.16 µM)?
A: 16.3%

Q: And the viability, T/C (second compound 10 µM, first compound 10 µM)?
A: 22.3%

Q: Which results are given for `CCc1c2c(nc3ccc(O)cc13)-c1cc3c(c(=O)n1C2)COC(=O)[C@]3(O)CC` + Cc1cncc(-c2nc(NCCc3c[nH]c4ccccc34)c3ncn(C(C)C)c3n2)c1?
A: IC50 (second compound 0.1 µM): 38.9 nM; IC50 (second compound 0.316 µM): 33.3 nM; IC50 (second compound 1 µM): 69.6 nM; IC50 (second compound 3.16 µM): 12.3 nM; IC50 (second compound 10 µM): < 0.949 nM; viability, T/C [1]: 96.7%; viability, T/C [2]: 91.2%; viability, T/C [3]: 60.3%; viability, T/C [4]: 56.5%; viability, T/C [5]: 41%; viability, T/C [6]: 29%; viability, T/C [7]: 92.4%; viability, T/C [8]: 84.3%; viability, T/C [9]: 61.3%; viability, T/C [10]: 54.4%; viability, T/C [11]: 37.6%; viability, T/C [12]: 28.7%; viability, T/C [13]: 102%; viability, T/C [14]: 94.2%; viability, T/C [15]: 70%; viability, T/C [16]: 58.8%; viability, T/C [17]: 50.9%; viability, T/C [18]: 30.2%; viability, T/C [19]: 74.8%; viability, T/C [20]: 66%; viability, T/C [21]: 49%; viability, T/C [22]: 43.3%; viability, T/C [23]: 32.2%; viability, T/C [24]: 23.2%; viability, T/C [25]: 10.7%; viability, T/C [26]: 11.6%; viability, T/C [27]: 12.5%; viability, T/C [28]: 11.7%; viability, T/C [29]: 9.62%; viability, T/C [30]: 11%
